Data: publication PMC4727756 (Journal of analytical & bioanalytical techniques, 2015)

Legend:
[1] = in vitro; type: in vitro ADME
Description: Short-term stabilities were also determined for post-preparation QC standards stored at room temperature for 10 hours. The QC results obtained after storage were compared with spiked concentration values by determining the percentage ratios of experimental values divided by spiked values.

[2] = stability of stock and working solutions (LC-MS/MS); type: physicochemical; settings: stored at 4°C for at least 6 months
Description: The stabilities of stock and working solutions for both analyte and internal standard were also evaluated. Stock solutions of analyte and IS were stored at −20°C for 9 months.

| Structure (SMILES) | recovery at 8 h, 1.25 ng/mL ([1]; rat plasma QC samples, rat plasma, bench top (8 hr) at room temp, 1.25 ng/ml) [%] | recovery at 8 h, 80 ng/mL ([1]; rat plasma QC samples, rat plasma, bench top (8 hr) at room temp, 80.00 ng/ml) [%] | recovery at 3 days, 1.25 ng/mL ([1]; rat plasma QC samples, rat plasma, freeze thaw (3 cycles), 1.25 ng/ml) [%] | recovery at 3 days, 80 ng/mL ([1]; rat plasma QC samples, rat plasma, freeze thaw (3 cycles), 80.00 ng/ml) [%] | recovery at 10 h, 1.25 ng/mL ([1]; rat, post-extraction (post-preparation) rat plasma QC samples, post extraction (10 hr) at room temp, 1.25 ng/ml) [%] | recovery at 10 h, 80 ng/mL ([1]; rat, post-extraction (post-preparation) rat plasma QC samples, post extraction (10 hr) at room temp, 80.00 ng/ml) [%] | stability of working solutions ([2]; two QC standards (1.25 and 80 ng/mL)) | stability of working solutions ([2]; 7.5 ng/mL IS) [%] |
| --- | --- | --- | --- | --- | --- | --- | --- | --- |
| Cc1ccc(C)c(COc2cc(NC(=O)c3cc(C(F)(F)F)cc(C(F)(F)F)c3)ccc2N(C)S(C)(=O)=O)c1 [BMCL26] | 103 | 103 | 98.1 | 105 | 102 | 108 | 99.60–105.00% |  |
| Cc1ccc(C)c(COc2cc(NC(=O)C3CCCCC3)ccc2N(C)S(C)(=O)=O)c1 [JCC76, N-(3-(2,5-dimethylbenzyloxy)-4-(methylmethylsulfonamido)phenyl)cyclohexanecaboxamide, reference compound] |  |  |  |  |  |  |  | 115.60 |
